Source: publication PMC10244169, “Psychedelics promote plasticity by directly binding to BDNF receptor TrkB” (Nature Neuroscience, 2023)

Experiments:
TrkB = molecular target: T1, TrkB (Rattus norvegicus, UniProt Q63604); experiment: biochemical; type: binding
T1 construct: expressed in transfected cells; host or cells: HEK293T

[1] = test system: spine density of neuronal cultures; experiment: Spinogenesis in mature neuronal cultures (WT and Y433F^+/−); type: cell-based, mouse; parameters: 6d: Mean (spinogenesis, spine density) / 6e: Mean (spinogenesis, spine density): unit not given here; conditions: for 6e: Mean (spinogenesis, spine density): Vehicle:Vehicle mean 7.05
Method: Spinogenesis experiments were performed similarly to previous studies[12],[13] with modifications. […] In a separate set of experiments to study the effects of extracellular BDNF and 5-HT2A activation, cultures were also pretreated for 10 min with TrkB.FC (200 ng ml^−1) or M100907 (100 nM), respectively. TrkB.FC and M100907 remained in the medium for the rest of the experiment. Twenty-four hours later, coverslips were fixed with 4% PFA, washed with PBS, incubated with blocking buffer (0.1% Triton X-100, 0.05% Tween-20, 10% normal donkey serum, 1% BSA and 0.1% gelatin in PBS) for 1 h at room temperature and then overnight with rabbit anti-MAP2 (Invitrogen, PA5-17646; 1:100) primary antibody at 4 °C. After washing with PBS, coverslips were incubated with CF568-conjugated donkey anti-rabbit (Biotium, 20098; 1:500) for 1 h at room temperature. Another round of PBS washes was followed by incubation with Alexa Fluor 647-conjugated phalloidin (Invitrogen, A22287; 1:40) overnight at 4 °C. Next, coverslips were briefly washed in phosphate buffer (PB) and mounted on slides with ProLong Glass Antifade Mountant (Invitrogen, P36982). We used a Zeiss LSM 880 confocal microscope with an AiryScan GaAsP detector equipped with a PlanApochromat 63×/1.4 NA objective. We used the BP 495–550 + LP 570 AiryScan filter and Zen Black in super-resolution mode for image acquisition. Pinhole size was adapted accordingly, and frame size was set to optimal. Sensors were set to continuous adjustment across the imaging sessions to ensure optimal sensor alignment and signal detection. Raw data were processed into AiryScan images with the autofilter mode on using Zen Blue. Finally, image analysis was performed in ImageJ by experimenters blinded for treatment and genotype. Spines were quantified in 15-µm-long dendrite sections.

[2] = test system: dendritic arbor complexity of neuronal cultures; experiment: Dendritogenesis (Sholl analysis) in neuronal cultures (WT and Y433F^+/−); type: cell-based, mouse; conditions: for dendritic arbor complexity, Mean Diff. (Vehicle:vehicle vs. group) / dendritic arbor complexity, group mean (Mean 2): fig 6i; for dendritic arbor complexity, Mean Diff. (Vehicle:vehicle vs. group): Bonferroni's multiple comparisons test; for dendritic arbor complexity, group mean (Mean 2): treatment:pretreatment groups, Vehicle:vehicle mean 69.72
Method: In a separate set of experiments to study the effects of extracellular BDNF and 5-HT2A activation, cultures were also pretreated for 10 min with TrkB.FC (200 ng ml^−1) or M100907 (100 nM), respectively. Similar to treatment with the psychedelics, TrkB.FC and M100907 pretreatments were administered in cumulative doses and remained in the medium for the rest of the experiment. At DIV7, neurons were pre-incubated for 1 h with […] MgCl2 to prevent excitotoxicity, then neurons were transfected for the heterologous expression of mCherry. To minimize any possible interference of the transfection protocol upon the drug effect, transfection was done in the morning while treatment with psychedelics was always added in the evening. Twenty-four hours after transfection, neurons were fixed with 4% PFA for 20 min at room temperature, washed in PBS-T, blocked for 30 min with 3% BSA in PBS-T and incubated with chicken anti-MAP2 (Abcam, ab5392; 1:5,000, 1 h, room temperature). Then, coverslips were washed in PBS-T and incubated with Alexa Fluor 647-conjugated antibody goat anti-chicken (Invitrogen, A-21449; 1:1,000, 1 h, room temperature). Next, coverslips were washed in PBS-T and MilliQ water, and mounted in Dako fluorescence mounting medium (Agilent, S302380-2). Ten optical sections with a Z-step of 1.3 μm were acquired using a Zeiss LSM 710 confocal microscope with a LCI Plan/Neofluar 25×/0.8 lmm Korr DIC M27 objective. In the mCherry channel, the center of the soma was manually assigned and the number of dendritic intersections at fixed distances (every 5 μm) from the soma was automatically counted using the Sholl analysis plugin of ImageJ.

[3] = Y433F+/-:vehicle minus Y433F+/-:treatment
[4] = fig 6j, distance from soma 10 µm
[5] = fig 6j, distance from soma 15 µm
[6] = fig 6j, distance from soma 20 µm
[7] = fig 6j, distance from soma 25 µm
[8] = fig 6j, distance from soma 30 µm
[9] = fig 6j, distance from soma 35 µm
[10] = fig 6j, distance from soma 40 µm
[11] = fig 6j, distance from soma 45 µm
[12] = fig 6j, distance from soma 50 µm
[13] = fig 6j, distance from soma 55 µm
[14] = fig 6j, distance from soma 60 µm
[15] = fig 6j, distance from soma 65 µm
[16] = fig 6j, distance from soma 70 µm
[17] = fig 6j, distance from soma 75 µm
[18] = fig 6j, distance from soma 80 µm
[19] = fig 6j, distance from soma 85 µm
[20] = fig 6j, distance from soma 90 µm
[21] = fig 6j, distance from soma 95 µm
[22] = fig 6j, distance from soma 100 µm
[23] = ext fig 1f, competition curve, n=5
[24] = TrkB.FC 200 ng ml^−1 or M100907 100 nM

T1 sequence (Q63604 32-821): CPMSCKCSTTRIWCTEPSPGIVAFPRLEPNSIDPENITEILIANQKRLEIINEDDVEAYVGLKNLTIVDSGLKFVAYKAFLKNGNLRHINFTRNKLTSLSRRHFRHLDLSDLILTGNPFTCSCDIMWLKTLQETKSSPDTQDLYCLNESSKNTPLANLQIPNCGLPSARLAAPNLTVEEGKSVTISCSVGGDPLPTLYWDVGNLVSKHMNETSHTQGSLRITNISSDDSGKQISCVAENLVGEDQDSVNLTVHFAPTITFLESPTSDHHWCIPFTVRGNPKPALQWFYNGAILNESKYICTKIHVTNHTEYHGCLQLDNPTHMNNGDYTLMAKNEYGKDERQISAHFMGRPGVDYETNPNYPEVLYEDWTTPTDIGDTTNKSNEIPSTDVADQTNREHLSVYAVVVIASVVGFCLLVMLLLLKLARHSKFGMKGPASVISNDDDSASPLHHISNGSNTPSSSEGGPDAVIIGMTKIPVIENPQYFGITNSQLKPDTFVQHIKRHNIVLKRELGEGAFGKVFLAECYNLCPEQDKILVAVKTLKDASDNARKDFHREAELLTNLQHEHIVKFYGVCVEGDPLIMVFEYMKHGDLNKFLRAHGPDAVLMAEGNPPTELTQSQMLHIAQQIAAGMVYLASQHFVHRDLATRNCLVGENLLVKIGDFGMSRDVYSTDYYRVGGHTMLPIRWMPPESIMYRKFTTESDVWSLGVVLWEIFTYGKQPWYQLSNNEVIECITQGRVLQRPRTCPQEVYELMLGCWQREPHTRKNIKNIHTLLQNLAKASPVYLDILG

CCN(CC)C(=O)C1C=C2c3cccc4[nH]cc(c34)CC2N(C)C1 (stereo not drawn) [LSD, lysergic acid diethylamide]
Ki (TrkB): 3.38 ± 1.39 nM
Bmax (best-fit, 1b) (TrkB; competition with ^3H-LSD): 104.9
h (best-fit, 1b) (TrkB; competition with ^3H-LSD): -0.5005
6e: Mean Diff. (Vehicle:Vehicle vs. treatment), Bonferroni's multiple comparisons test ([1]; LSD together with M100907): -7.65
6e: Mean (spinogenesis, spine density) ([1]; LSD together with M100907): 14.7
6e: Mean Diff. (Vehicle:Vehicle vs. treatment), Bonferroni's multiple comparisons test ([1]; LSD together with TrkB.FC): 0.25
6e: Mean (spinogenesis, spine density) ([1]; LSD together with TrkB.FC): 6.8
6d: Mean (spinogenesis, spine density) ([1]; WT neurons, vehicle mean 5.7): 13
6d: Mean Diff. (vehicle vs. treatment), Bonferroni's multiple comparisons test ([1]; WT:vehicle minus WT:treatment): -7.3
6d: Mean (spinogenesis, spine density) ([1]; Y433F+/- neurons, vehicle mean 6.55): 7.5
6d: Mean Diff. (vehicle vs. treatment), Bonferroni's multiple comparisons test [1, 3]: -0.95
spine density ([1]; cultures from WT mice, 24 h, 100 nM): increase spine density
6e: Mean Diff. (Vehicle:Vehicle vs. treatment), Bonferroni's multiple comparisons test ([1]; substance alone (with vehicle)): -7.6
6e: Mean (spinogenesis, spine density) ([1]; substance alone (with vehicle)): 14.65
6g: Mean (dendritogenesis, Sholl analysis) ([2]; WT neurons, vehicle mean 32.96): 75.11
6g: Mean Diff. (vehicle vs. treatment), Bonferroni's multiple comparisons test ([2]; WT:vehicle minus WT:treatment): -42.15
6g: Mean (dendritogenesis, Sholl analysis) ([2]; Y433F+/- neurons, vehicle mean 44.44): 47.24
6g: Mean Diff. (vehicle vs. treatment), Bonferroni's multiple comparisons test [2, 3]: -2.791
dendritic arbor complexity ([2]; cultures from WT mice): enhance dendritic arbor complexity
dendritic arbor complexity ([2]; cultures from Y433F^+/− mice): not Y433F^+/− mice
dendritic arbor complexity, Mean Diff. (Vehicle:vehicle vs. group) [2]: -41.23
dendritic arbor complexity, group mean (Mean 2) [2]: 110.9
Sholl analysis, Mean at distance from soma [2, 4]: 8.895
Sholl analysis, Mean at distance from soma [2, 5]: 10.2632
Sholl analysis, Mean at distance from soma [2, 6]: 10.421
Sholl analysis, Mean at distance from soma [2, 7]: 9.211
Sholl analysis, Mean at distance from soma [2, 8]: 8.842
Sholl analysis, Mean at distance from soma [2, 9]: 8.316
Sholl analysis, Mean at distance from soma [2, 10]: 6.789
Sholl analysis, Mean at distance from soma [2, 11]: 6.368
Sholl analysis, Mean at distance from soma [2, 12]: 6.368
Sholl analysis, Mean at distance from soma [2, 13]: 4.737
Sholl analysis, Mean at distance from soma [2, 14]: 4.526
Sholl analysis, Mean at distance from soma [2, 15]: 3.895
Sholl analysis, Mean at distance from soma [2, 16]: 3.526
Sholl analysis, Mean at distance from soma [2, 17]: 3.158
Sholl analysis, Mean at distance from soma [2, 18]: 3.158
Sholl analysis, Mean at distance from soma [2, 19]: 3.316
Sholl analysis, Mean at distance from soma [2, 20]: 3.105
Sholl analysis, Mean at distance from soma [2, 21]: 3.211
Sholl analysis, Mean at distance from soma [2, 22]: 2.842
Sholl analysis, Mean at distance from soma ([2]; fig 6h, distance from soma 25 µm): 4.059
Sholl analysis, Mean at distance from soma ([2]; fig 6h, distance from soma 30 µm): 3.529
Sholl analysis, Mean at distance from soma ([2]; fig 6h, distance from soma 35 µm): 3
Sholl analysis, Mean at distance from soma ([2]; fig 6h, distance from soma 40 µm): 3.059
Sholl analysis, Mean at distance from soma ([2]; fig 6h, distance from soma 45 µm): 2.412
Sholl analysis, Mean at distance from soma ([2]; fig 6h, distance from soma 50 µm): 2.471
Sholl analysis, Mean at distance from soma ([2]; fig 6h, distance from soma 55 µm): 2.294
Sholl analysis, Mean at distance from soma ([2]; fig 6h, distance from soma 60 µm): 1.882
Sholl analysis, Mean at distance from soma ([2]; fig 6h, distance from soma 65 µm): 1.765
Sholl analysis, Mean at distance from soma ([2]; fig 6h, distance from soma 70 µm): 1.294
Sholl analysis, Mean at distance from soma ([2]; fig 6h, distance from soma 75 µm): 1.353
Sholl analysis, Mean at distance from soma ([2]; fig 6h, distance from soma 80 µm): 1.353
Sholl analysis, Mean at distance from soma ([2]; fig 6h, distance from soma 85 µm): 1
Sholl analysis, Mean at distance from soma ([2]; fig 6h, distance from soma 90 µm): 1.059
Sholl analysis, Mean at distance from soma ([2]; fig 6h, distance from soma 95 µm): 1
Sholl analysis, Mean at distance from soma ([2]; fig 6h, distance from soma 100 µm): 0.7059
6h: Mean (Sholl analysis) ([2]; first 6h table (N as WT), distance from soma 10 µm): 6.789
6h: Mean (Sholl analysis) ([2]; first 6h table (N as WT), distance from soma 15 µm): 8.684
6h: Mean (Sholl analysis) ([2]; first 6h table (N as WT), distance from soma 20 µm): 8.526
6h: Mean (Sholl analysis) ([2]; first 6h table (N as WT), distance from soma 25 µm): 6.474
6h: Mean (Sholl analysis) ([2]; first 6h table (N as WT), distance from soma 30 µm): 6
6h: Mean (Sholl analysis) ([2]; first 6h table (N as WT), distance from soma 35 µm): 5.211
6h: Mean (Sholl analysis) ([2]; first 6h table (N as WT), distance from soma 40 µm): 3.632
6h: Mean (Sholl analysis) ([2]; first 6h table (N as WT), distance from soma 45 µm): 3.474
6h: Mean (Sholl analysis) ([2]; first 6h table (N as WT), distance from soma 50 µm): 3
6h: Mean (Sholl analysis) ([2]; first 6h table (N as WT), distance from soma 55 µm): 2.684
6h: Mean (Sholl analysis) ([2]; first 6h table (N as WT), distance from soma 60 µm): 3.105
6h: Mean (Sholl analysis) ([2]; first 6h table (N as WT), distance from soma 65 µm): 2.579
6h: Mean (Sholl analysis) ([2]; first 6h table (N as WT), distance from soma 70 µm): 2.421
6h: Mean (Sholl analysis) ([2]; first 6h table (N as WT), distance from soma 75 µm): 2.263
6h: Mean (Sholl analysis) ([2]; first 6h table (N as WT), distance from soma 80 µm): 2.421
6h: Mean (Sholl analysis) ([2]; first 6h table (N as WT), distance from soma 85 µm): 2
6h: Mean (Sholl analysis) ([2]; first 6h table (N as WT), distance from soma 90 µm): 2.421
6h: Mean (Sholl analysis) ([2]; first 6h table (N as WT), distance from soma 95 µm): 1.632
6h: Mean (Sholl analysis) ([2]; first 6h table (N as WT), distance from soma 100 µm): 1.789
6h: Mean (Sholl analysis) ([2]; second 6h table (N as Y433F), distance from soma 10 µm): 5.294
6h: Mean (Sholl analysis) ([2]; second 6h table (N as Y433F), distance from soma 15 µm): 4.941
6h: Mean (Sholl analysis) ([2]; second 6h table (N as Y433F), distance from soma 20 µm): 4.765

COc1cccc([C@H](O)C2CCN(CCc3ccc(F)cc3)CC2)c1OC [M100907]
displacement of ^3H-LSD from TrkB (TrkB; 1 nM to 10 µM of drug): fail to displace LSD binding to TrkB
Fit status, specific binding with Hill slope (TrkB; ext fig 1f): Ambiguous
Bmax (specific binding with Hill slope, best-fit) (TrkB; [23]): 94.18
h (Hill slope, best-fit) (TrkB; [23]): ~ 1.901
effect of pretreatment on spinogenic effect of LSD [1, 24]: not M100907 prevented the spinogenic effect of LSD
6e: Mean Diff. (Vehicle:Vehicle vs. treatment), Bonferroni's multiple comparisons test ([1]; substance alone (with vehicle)): -2.8
6e: Mean (spinogenesis, spine density) ([1]; substance alone (with vehicle)): 9.85
effect of pretreatment on LSD effects on dendritogenesis [2, 24]: not M100907 prevented LSD effects on dendritogenesis
dendritic arbor complexity, Mean Diff. (Vehicle:vehicle vs. group) [2]: -9.087
dendritic arbor complexity, group mean (Mean 2) [2]: 78.81
Sholl analysis, Mean at distance from soma [2, 4]: 6.619
Sholl analysis, Mean at distance from soma [2, 5]: 6.476
Sholl analysis, Mean at distance from soma [2, 6]: 6.048
Sholl analysis, Mean at distance from soma [2, 7]: 6.333
Sholl analysis, Mean at distance from soma [2, 8]: 5.286
Sholl analysis, Mean at distance from soma [2, 9]: 4.524
Sholl analysis, Mean at distance from soma [2, 10]: 4.619
Sholl analysis, Mean at distance from soma [2, 11]: 3.714
Sholl analysis, Mean at distance from soma [2, 12]: 3.667
Sholl analysis, Mean at distance from soma [2, 13]: 3.571
Sholl analysis, Mean at distance from soma [2, 14]: 3.381
Sholl analysis, Mean at distance from soma [2, 15]: 3.238
Sholl analysis, Mean at distance from soma [2, 16]: 2.905
Sholl analysis, Mean at distance from soma [2, 17]: 2.857
Sholl analysis, Mean at distance from soma [2, 18]: 3.429
Sholl analysis, Mean at distance from soma [2, 19]: 3.429
Sholl analysis, Mean at distance from soma [2, 20]: 3.381
Sholl analysis, Mean at distance from soma [2, 21]: 2.619
Sholl analysis, Mean at distance from soma [2, 22]: 2.714
